Measurements taken from the supplement of paper PMC4862054.

Legend:
Test in all cases: normalised viability (% of control), CellTiter-Blue; higher = more viable cells (about 100 = DMSO control)
[1] = tested on: MFM-223; details: 100 nM; incubation time: 72 h
Experimental: (§1)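 DSRT, CellTiter-Blue viability, 72 h incubation. Signal is normalised to DMSO and benzethonium chloride controls. Value is the normalised response at dose 3.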

[2] = tested on: BT-474; details: 100 nM; incubation time: 72 h
Experimental: as §1

[3] = tested on: BT-549; details: 100 nM; incubation time: 72 h
Experimental: as §1

[4] = tested on: HCC1599; details: 100 nM; incubation time: 72 h
Experimental: as §1

[5] = tested on: CAL-51; details: 10 nM; incubation time: 72 h
Experimental: as §1

[6] = tested on: HCC1937; details: 100 nM; incubation time: 72 h
Experimental: as §1

[7] = tested on: DU-4475; details: 10 nM; incubation time: 72 h
Experimental: as §1

[8] = tested on: MDA-MB-468; details: 100 nM; incubation time: 72 h
Experimental: as §1

[9] = tested on: CAL-148; details: 10 nM; incubation time: 72 h
Experimental: as §1

[10] = tested on: CAL-85-1; details: 10 nM; incubation time: 72 h
Experimental: as §1

[11] = tested on: SK-BR-3; details: 100 nM; incubation time: 72 h
Experimental: as §1

[12] = tested on: MDA-MB-231; details: 100 nM; incubation time: 72 h
Experimental: as §1

[13] = tested on: MDA-MB-453; details: 10 nM; incubation time: 72 h
Experimental: as §1

[14] = tested on: HCC1143; details: 100 nM; incubation time: 72 h
Experimental: as §1

[15] = tested on: HDQ-P1; details: 10 nM; incubation time: 72 h
Experimental: as §1

[16] = tested on: MDA-MB-436; details: 100 nM; incubation time: 72 h
Experimental: as §1

[17] = tested on: Hs578T; details: 100 nM; incubation time: 72 h
Experimental: as §1

[18] = tested on: CAL-120; details: 100 nM; incubation time: 72 h
Experimental: as §1

[19] = tested on: MFM-223; details: incubation time: 72 h
Procedure, shortened: (§2)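 384-well plates were pre-loaded with compound in 5 µl medium before 20 µl of breast cancer cell suspension was seeded. Following 72 h incubation, 2.5 µl CellTiter-Blue reagent was added for 2 h at 37 °C. Fluorescence was read at 560/590 nm and plates were normalised to vehicle (100) and a positive kill control (0), checked by Z'-factor. Normalised viability is reported at a single listed concentration of the series.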

[20] = tested on: BT-474; details: incubation time: 72 h
Procedure, shortened: as §2

[21] = tested on: BT-549; details: incubation time: 72 h
Procedure, shortened: as §2

[22] = tested on: HCC1937; details: incubation time: 72 h
Procedure, shortened: as §2

[23] = tested on: DU-4475; details: incubation time: 72 h
Procedure, shortened: as §2

[24] = tested on: CAL-148; details: incubation time: 72 h
Procedure, shortened: as §2

[25] = tested on: SK-BR-3; details: incubation time: 72 h
Procedure, shortened: as §2

[26] = tested on: MDA-MB-231; details: incubation time: 72 h
Procedure, shortened: as §2

[27] = tested on: MDA-MB-453; details: incubation time: 72 h
Procedure, shortened: as §2

[28] = tested on: HCC1143; details: incubation time: 72 h
Procedure, shortened: as §2

[29] = tested on: HDQ-P1; details: incubation time: 72 h
Procedure, shortened: as §2

CC(C)(C)c1cnc(CSc2cnc(NC(=O)C3CCNCC3)s2)o1 [SNS-032]
Details	normalised viability [%]
[1]	82.7
[2]	85.5
[3]	91.7
[4]	78.6
[5]	117
[6]	53.2
[7]	101
[8]	96.9
[9]	89.1
[10]	96.2
[11]	62.1
[12]	69.5
[13]	99.8
[14]	76.5
[15]	132
[16]	104
[17]	52.8
[18]	69

normalised viability [%]
Details	3 nM	10 nM	30 nM	100 nM	1000 nM	10000 nM
[19]	–	87.9	–	–	14.2	20
[20]	–	119	–	–	26.5	35
[21]	–	94.8	–	–	11.6	9.46
[22]	–	138	–	–	23.1	17.1
[23]	101	–	86.9	87.5	–	–
[24]	91.9	–	99.5	77.1	–	–
[25]	–	98.4	–	–	5.34	4.75
[26]	–	106	–	–	8.24	7.03
[27]	118	–	92.7	70.8	–	–
[28]	–	79.7	–	–	17.5	16.6
[29]	113	–	93.5	63	–	–

COc1cc2c(cc1O)CC[C@@H]1[C@@H]2CC[C@]2(C)[C@@H](O)CC[C@@H]12 [2-methoxyestradiol]
Details	normalised viability [%]
[1]	108
[2]	121
[3]	91.7
[4]	95
[5]	118
[6]	103
[7]	106
[8]	102
[9]	93.3
[10]	101
[11]	99.2
[12]	94.3
[13]	95.3
[14]	99.8
[15]	98.8
[16]	100
[17]	103
[18]	87.9

normalised viability [%]
Details	3 nM	10 nM	30 nM	100 nM	1000 nM	10000 nM
[19]	–	98.8	–	–	74.9	99.2
[20]	–	133	–	–	64.3	48.5
[21]	–	89.1	–	–	51.7	17.6
[22]	–	113	–	–	54.3	26.8
[23]	108	–	102	109	–	–
[24]	89.8	–	89.5	86	–	–
[25]	–	97.6	–	–	101	20.2
[26]	–	83.9	–	–	44.8	30.5
[27]	114	–	87.5	96.7	–	–
[28]	–	92.4	–	–	82.7	37.1
[29]	103	–	93.9	93.2	–	–
